{"source": "ChEMBL document CHEMBL5321270", "about": "“Discovery of Pyrazolone Carbothioamide Derivatives as Inhibitors of the Pdr1-KIX Interaction for Combinational Treatment of Azole-Resistant Candidiasis” (J Med Chem, 2023)", "key": {"[1]": {"test_system": "Nakaseomyces glabratus", "assay": "Antifungal activity against FLC-resistant Candida glabrata 0161 infected in cyclophosphamide immunosuppressed ICR mouse model assessed as inhibition of fungal growth in kidney at 40 mg/kg,ip administrated for 5 days", "type": "functional, organism-based", "settings": "time 5.0 day"}, "[2]": {"test_system": "Nakaseomyces glabratus", "assay": "Antifungal activity against fluconazole-resistant Candida glabrata 0161 assessed as fungal growth inhibition incubated for 48 hrs by microplate reader assay", "type": "functional"}, "[3]": {"test_system": "Nakaseomyces glabratus", "assay": "Synergistic antifungal activity against fluconazole-resistant Candida glabrata 0161 assessed as fractional inhibitory concentration index incubated for 48 hrs in presence of A6 compound by checkerboard microdilution method", "type": "functional"}, "[4]": {"test_system": "Nakaseomyces glabratus", "assay": "Synergistic antifungal activity against fluconazole-resistant Candida glabrata 0161 assessed as fractional inhibitory concentration index incubated for 48 hrs in presence of A11 compound by checkerboard microdilution method", "type": "functional"}, "[5]": {"test_system": "Nakaseomyces glabratus", "assay": "Synergistic antifungal activity against fluconazole-resistant Candida glabrata 0161 assessed as fractional inhibitory concentration index incubated for 48 hrs in presence of A1 compound by checkerboard microdilution method", "type": "functional"}, "[6]": {"test_system": "Nakaseomyces glabratus", "assay": "Synergistic antifungal activity against fluconazole-resistant Candida glabrata 0161 assessed as fractional inhibitory concentration index incubated for 48 hrs in presence of A2 compound by checkerboard microdilution method", "type": "functional"}, "[7]": {"test_system": "Nakaseomyces glabratus", "assay": "Synergistic antifungal activity against fluconazole-resistant Candida glabrata 0161 assessed as fractional inhibitory concentration index incubated for 48 hrs in presence of A3 compound by checkerboard microdilution method", "type": "functional"}, "[8]": {"test_system": "Nakaseomyces glabratus", "assay": "Synergistic antifungal activity against fluconazole-resistant Candida glabrata 0161 assessed as fractional inhibitory concentration index incubated for 48 hrs in presence of A4 compound by checkerboard microdilution method", "type": "functional"}, "[9]": {"test_system": "Nakaseomyces glabratus", "assay": "Synergistic antifungal activity against fluconazole-resistant Candida glabrata 0161 assessed as fractional inhibitory concentration index incubated for 48 hrs in presence of A5 compound by checkerboard microdilution method", "type": "functional"}, "[10]": {"test_system": "Nakaseomyces glabratus", "assay": "Synergistic antifungal activity against fluconazole-resistant Candida glabrata 0161 assessed as fractional inhibitory concentration index incubated for 48 hrs in presence of A7 compound by checkerboard microdilution method", "type": "functional"}, "[11]": {"test_system": "Nakaseomyces glabratus", "assay": "Synergistic antifungal activity against fluconazole-resistant Candida glabrata 0161 assessed as fractional inhibitory concentration index incubated for 48 hrs in presence of A8 compound by checkerboard microdilution method", "type": "functional"}, "[12]": {"test_system": "Nakaseomyces glabratus", "assay": "Synergistic antifungal activity against fluconazole-resistant Candida glabrata 0161 assessed as fractional inhibitory concentration index incubated for 48 hrs in presence of A9 compound by checkerboard microdilution method", "type": "functional"}, "[13]": {"test_system": "Nakaseomyces glabratus", "assay": "Synergistic antifungal activity against fluconazole-resistant Candida glabrata 0161 assessed as fractional inhibitory concentration index incubated for 48 hrs in presence of A10 compound by checkerboard microdilution method", "type": "functional"}, "[14]": {"test_system": "Nakaseomyces glabratus", "assay": "Synergistic antifungal activity against fluconazole-resistant Candida glabrata 0161 assessed as fractional inhibitory concentration index incubated for 48 hrs in presence of A12 compound by checkerboard microdilution method", "type": "functional"}, "[15]": {"test_system": "Nakaseomyces glabratus", "assay": "Synergistic antifungal activity against fluconazole-resistant Candida glabrata 0161 assessed as fractional inhibitory concentration index incubated for 48 hrs in presence of A13 compound by checkerboard microdilution method", "type": "functional"}, "[16]": {"test_system": "Nakaseomyces glabratus", "assay": "Synergistic antifungal activity against fluconazole-resistant Candida glabrata 0161 assessed as fractional inhibitory concentration index incubated for 48 hrs in presence of A14 compound by checkerboard microdilution method", "type": "functional"}, "[17]": {"test_system": "Nakaseomyces glabratus", "assay": "Synergistic antifungal activity against fluconazole-resistant Candida glabrata 0161 assessed as fractional inhibitory concentration index incubated for 48 hrs in presence of B1 compound by checkerboard microdilution method", "type": "functional"}, "[18]": {"test_system": "Nakaseomyces glabratus", "assay": "Synergistic antifungal activity against fluconazole-resistant Candida glabrata 0161 assessed as fractional inhibitory concentration index incubated for 48 hrs in presence of B2 compound by checkerboard microdilution method", "type": "functional"}, "[19]": {"test_system": "Nakaseomyces glabratus", "assay": "Synergistic antifungal activity against fluconazole-resistant Candida glabrata 0161 assessed as fractional inhibitory concentration index incubated for 48 hrs in presence of B3 compound by checkerboard microdilution method", "type": "functional"}, "[20]": {"test_system": "Nakaseomyces glabratus", "assay": "Synergistic antifungal activity against fluconazole-resistant Candida glabrata 0161 assessed as fractional inhibitory concentration index incubated for 48 hrs in presence of B4 compound by checkerboard microdilution method", "type": "functional"}, "[21]": {"test_system": "Nakaseomyces glabratus", "assay": "Synergistic antifungal activity against fluconazole-resistant Candida glabrata 0161 assessed as fractional inhibitory concentration index incubated for 48 hrs in presence of B5 compound by checkerboard microdilution method", "type": "functional"}, "[22]": {"test_system": "Nakaseomyces glabratus", "assay": "Synergistic antifungal activity against fluconazole-resistant Candida glabrata 0161 assessed as fractional inhibitory concentration index incubated for 48 hrs in presence of B6 compound by checkerboard microdilution method", "type": "functional"}, "[23]": {"test_system": "Nakaseomyces glabratus", "assay": "Synergistic antifungal activity against fluconazole-resistant Candida glabrata 0161 assessed as fractional inhibitory concentration index incubated for 48 hrs in presence of B7 compound by checkerboard microdilution method", "type": "functional"}, "[24]": {"test_system": "Nakaseomyces glabratus", "assay": "Synergistic antifungal activity against fluconazole-resistant Candida glabrata 0161 assessed as fractional inhibitory concentration index incubated for 48 hrs in presence of B8 compound by checkerboard microdilution method", "type": "functional"}, "[25]": {"test_system": "Nakaseomyces glabratus", "assay": "Antifungal activity against fluconazole-resistant Candida glabrata 0161 assessed as fungal growth inhibition at 16 ug/ml incubated for 48 hrs by time-growth curve assay", "type": "functional, organism-based", "settings": "dose 16.0 µg/ml"}, "[26]": {"test_system": "Nakaseomyces glabratus", "assay": "Antifungal activity against fluconazole-resistant Candida glabrata 0161 assessed as inhibition of fungal biofilm formation at 32 ug/ml incubated for 24 hrs by XXT reduction menadione assay", "type": "functional"}, "[27]": {"test_system": "Nakaseomyces glabratus", "assay": "Synergistic antifungal activity against fluconazole-resistant Candida glabrata 0161 assessed as inhibition of fungal biofilm formation at 4 ug/ml incubated for 24 hrs in presence of compound B8 by XXT reduction menadione assay", "type": "functional"}, "[28]": {"test_system": "Nakaseomyces glabratus", "assay": "Antifungal activity against fluconazole-resistant Candida glabrata 0161 assessed as inhibition of fungal mature biofilm formation at 0.25 to 64 ug/ml incubated for 24 hrs by XXT reduction menadione assay", "type": "functional, organism-based", "settings": "dose 0.25-64 µg/ml"}, "[29]": {"test_system": "Nakaseomyces glabratus", "assay": "Antifungal activity against fluconazole-resistant Candida glabrata 0161 assessed as downregulation of PDR1 gene expression at 32 ug/ml by RT-PCR analysis", "type": "functional, organism-based", "settings": "dose 32.0 µg/ml"}, "[30]": {"test_system": "Nakaseomyces glabratus", "assay": "Antifungal activity against fluconazole-resistant Candida glabrata 0161 assessed as downregulation of CDR1 gene expression at 32 ug/ml by RT-PCR analysis", "type": "functional, organism-based", "settings": "dose 32.0 µg/ml"}, "[31]": {"test_system": "Nakaseomyces glabratus", "assay": "Antifungal activity against fluconazole-resistant Candida glabrata 0161 assessed as downregulation of CDR2 gene expression at 32 ug/ml by RT-PCR analysis", "type": "functional, organism-based", "settings": "dose 32.0 µg/ml"}, "[32]": {"test_system": "Nakaseomyces glabratus", "assay": "Antifungal activity against fluconazole-resistant Candida glabrata 0161 assessed as downregulation of ERG11 gene expression at 32 ug/ml by RT-PCR analysis", "type": "functional, organism-based", "settings": "dose 32.0 µg/ml"}, "[33]": {"test_system": "Nakaseomyces glabratus", "assay": "Antifungal activity against FLC-resistant Candida glabrata 0161 infected in cyclophosphamide immunosuppressed ICR mouse model assessed as inhibition of fungal growth in kidney at 5 mg/kg,ip administrated for 5 days", "type": "functional, organism-based", "settings": "time 5.0 day"}, "[34]": {"test_system": "Nakaseomyces glabratus", "assay": "Antifungal activity against FLC-resistant Candida glabrata 0161 infected in cyclophosphamide immunosuppressed ICR mouse model assessed as pathological change in kidney at 5 mg/kg,ip administrated for 5 days by Hematoxylin and eosin staining based analysis", "type": "functional, organism-based", "settings": "time 5.0 day"}}, "note": "Activity calls are given as the source filed them. The calls are words filed in the database; no cut-off is given here."}
{"smiles": "OC(Cn1cncn1)(Cn1cncn1)c1ccc(F)cc1F", "note": "[FLUCONAZOLE]", "values": [{"measurement": "Activity", "setting": "[1]", "result": "Active"}, {"measurement": "MIC", "setting": "[2]", "result": 32, "unit": "µg/mL"}, {"measurement": "fractional inhibitory concentration index (FICI)", "setting": "[3]", "result": 0.25}, {"measurement": "fractional inhibitory concentration index (FICI)", "setting": "[4]", "result": 0.52}, {"measurement": "fractional inhibitory concentration index (FICI)", "setting": "[5]", "result": 0.31}, {"measurement": "fractional inhibitory concentration index (FICI)", "setting": "[6]", "result": 0.56}, {"measurement": "fractional inhibitory concentration index (FICI)", "setting": "[7]", "result": 0.56}, {"measurement": "fractional inhibitory concentration index (FICI)", "setting": "[8]", "result": 0.53}, {"measurement": "fractional inhibitory concentration index (FICI)", "setting": "[9]", "result": 0.56}, {"measurement": "fractional inhibitory concentration index (FICI)", "setting": "[10]", "result": 0.38}, {"measurement": "fractional inhibitory concentration index (FICI)", "setting": "[11]", "result": 0.53}, {"measurement": "fractional inhibitory concentration index (FICI)", "setting": "[12]", "result": 0.53}, {"measurement": "fractional inhibitory concentration index (FICI)", "setting": "[13]", "result": 0.53}, {"measurement": "fractional inhibitory concentration index (FICI)", "setting": "[14]", "result": 0.53}, {"measurement": "fractional inhibitory concentration index (FICI)", "setting": "[15]", "result": 0.53}, {"measurement": "fractional inhibitory concentration index (FICI)", "setting": "[16]", "result": 0.56}, {"measurement": "fractional inhibitory concentration index (FICI)", "setting": "[17]", "result": 0.53}, {"measurement": "fractional inhibitory concentration index (FICI)", "setting": "[18]", "result": 0.29}, {"measurement": "fractional inhibitory concentration index (FICI)", "setting": "[19]", "result": 0.31}, {"measurement": "fractional inhibitory concentration index (FICI)", "setting": "[20]", "result": 0.31}, {"measurement": "fractional inhibitory concentration index (FICI)", "setting": "[21]", "result": 0.76}, {"measurement": "fractional inhibitory concentration index (FICI)", "setting": "[22]", "result": 0.53}, {"measurement": "fractional inhibitory concentration index (FICI)", "setting": "[23]", "result": 0.52}, {"measurement": "fractional inhibitory concentration index (FICI)", "setting": "[24]", "result": 0.28}, {"measurement": "Activity", "setting": "[25]", "result": "inactive"}, {"measurement": "inhibition at 32 µg/mL", "setting": "[26]", "result": 39, "unit": "%"}, {"measurement": "inhibition at 4 µg/mL", "setting": "[27]", "result": 33, "unit": "%"}, {"measurement": "inhibition", "setting": "[28]", "result": "Active"}, {"measurement": "Activity", "setting": "[29]", "result": "inactive"}, {"measurement": "Activity", "setting": "[30]", "result": "inactive"}, {"measurement": "Activity", "setting": "[31]", "result": "inactive"}, {"measurement": "Activity", "setting": "[32]", "result": "inactive"}, {"measurement": "Activity", "setting": "[33]", "result": "inactive"}, {"measurement": "Activity", "setting": "[34]", "result": "Active"}]}
